ChEMBL document CHEMBL1201862, “PubChem BioAssay data set” (2004)
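Step 1: Grow cells in 96-well plates. Step 2: Expose to compound for 48 hours at 5 concentrations. Step 3: Interpolate endpoints linearly; if unreached, use highest concentration. GI50 = concentration required for 50% inhibition of growth.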 Calls of active or inactive are those of the source. Rule as the data show it: active = GI50 up to about 1.1 µM and inactive = higher.

Columns and labels:
Assay in all cases: DTP human tumour cell line panel, 48 h
HOP-62 = tested on: HOP-62
NCI-H23 = tested on: NCI-H23
U-251 = tested on: U-251
HOP-18 = tested on: HOP-18
M19-MEL = tested on: M19-MEL
NCI-H460 = tested on: NCI-H460
SNB-75 = tested on: SNB-75
OVCAR-5 = tested on: OVCAR-5
A498 = tested on: A498
SK-MEL-5 = tested on: SK-MEL-5
DLD-1 = tested on: DLD-1
OVCAR-8 = tested on: OVCAR-8
UACC-257 = tested on: UACC-257
UO-31 = tested on: UO-31
KM-20L2 = tested on: KM-20L2
M14 = tested on: M14
OVCAR-3 = tested on: OVCAR-3
NCI-H522 = tested on: NCI-H522
CAKI-1 = tested on: CAKI-1
XF498 = tested on: XF498
HCT-15 = tested on: HCT-15
SF-295 = tested on: SF-295
ACHN = tested on: ACHN
SK-OV-3 = tested on: SK-OV-3
SK-MEL-28 = tested on: SK-MEL-28
DMS-273 = tested on: DMS-273
DMS-114 = tested on: DMS-114
MOLT-4 = tested on: MOLT-4
A549 = tested on: A549
K562 = tested on: K562
CCRF-CEM = tested on: CCRF-CEM
IGROV-1 = tested on: IGROV-1
SNB-78 = tested on: SNB-78
HL-60 = tested on: HL-60
HOP-92 = tested on: HOP-92
UACC-62 = tested on: UACC-62
SW-620 = tested on: SW-620
SF-268 = tested on: SF-268
HCC 2998 = tested on: HCC 2998
SNB-19 = tested on: SNB-19
SR = tested on: SR
HT-29 = tested on: HT-29
KM12 = tested on: KM12
HCT-116 = tested on: HCT-116
TK-10 = tested on: TK-10
RPMI-8226 = tested on: RPMI-8226
SN12C = tested on: SN12C
OVCAR-4 = tested on: OVCAR-4
LXFL 529 = tested on: LXFL 529
786-0 = tested on: 786-0
SF-539 = tested on: SF-539
EKVX = tested on: EKVX
RXF 393 = tested on: RXF 393
COLO 205 = tested on: COLO 205
LOX IMVI = tested on: LOX IMVI

**Q.** With `C/C(=N/NS(=O)(=O)c1c(C)cc(C)cc1C)c1cccc[n+]1[O-]` as the compound, how does the GI50 (HOP-62) read?
**A.** > 100 µM (inactive)

**Q.** And the GI50 (NCI-H23)?
**A.** > 100 µM (inactive)

**Q.** What about the GI50 (U-251) of the same compound?
**A.** > 100 µM (inactive)

**Q.** What about the GI50 (HOP-18) of the same compound?
**A.** > 100 µM (inactive)

**Q.** And the GI50 (M19-MEL)?
**A.** > 100 µM (inactive)

**Q.** What about the GI50 (NCI-H460) of the same compound?
**A.** > 100 µM (inactive)

**Q.** And the GI50 (SNB-75)?
**A.** 76.2 µM (inactive)

**Q.** What about the GI50 (OVCAR-5) of the same compound?
**A.** > 100 µM (inactive)

**Q.** What about the GI50 (A498) of the same compound?
**A.** > 100 µM (inactive)

**Q.** What about the GI50 (SK-MEL-5) of the same compound?
**A.** > 100 µM (inactive)

**Q.** And the GI50 (DLD-1)?
**A.** > 100 µM (inactive)

**Q.** And the GI50 (OVCAR-8)?
**A.** > 100 µM (inactive)

**Q.** What about the GI50 (UACC-257) of the same compound?
**A.** > 100 µM (inactive)

**Q.** What about the GI50 (UO-31) of the same compound?
**A.** > 100 µM (inactive)

**Q.** What about the GI50 (KM-20L2) of the same compound?
**A.** > 100 µM (inactive)

**Q.** And the GI50 (M14)?
**A.** > 100 µM (inactive)

**Q.** What about the GI50 (OVCAR-3) of the same compound?
**A.** > 100 µM (inactive)

**Q.** What about the GI50 (NCI-H522) of the same compound?
**A.** 83.4 µM (inactive)

**Q.** And the GI50 (CAKI-1)?
**A.** > 100 µM (inactive)

**Q.** What about the GI50 (XF498) of the same compound?
**A.** > 100 µM (inactive)

**Q.** What about the GI50 (HCT-15) of the same compound?
**A.** > 100 µM

**Q.** And the GI50 (SF-295)?
**A.** > 100 µM (inactive)

**Q.** And the GI50 (ACHN)?
**A.** > 100 µM (inactive)

**Q.** And the GI50 (SK-OV-3)?
**A.** > 100 µM (inactive)

**Q.** What about the GI50 (SK-MEL-28) of the same compound?
**A.** > 100 µM (inactive)

**Q.** And the GI50 (DMS-273)?
**A.** > 100 µM (inactive)

**Q.** What about the GI50 (DMS-114) of the same compound?
**A.** > 100 µM (inactive)

**Q.** And the GI50 (MOLT-4)?
**A.** > 100 µM (inactive)

**Q.** What about the GI50 (A549) of the same compound?
**A.** > 100 µM (inactive)

**Q.** What about the GI50 (K562) of the same compound?
**A.** > 100 µM (inactive)

**Q.** And the GI50 (CCRF-CEM)?
**A.** > 100 µM (inactive)

**Q.** What about the GI50 (IGROV-1) of the same compound?
**A.** > 100 µM (inactive)

**Q.** And the GI50 (SNB-78)?
**A.** > 100 µM (inactive)

**Q.** What about the GI50 (HL-60) of the same compound?
**A.** > 100 µM (inactive)

**Q.** And the GI50 (HOP-92)?
**A.** > 100 µM (inactive)

**Q.** And the GI50 (UACC-62)?
**A.** > 100 µM (inactive)

**Q.** What about the GI50 (SW-620) of the same compound?
**A.** > 100 µM (inactive)

**Q.** What about the GI50 (SF-268) of the same compound?
**A.** > 100 µM (inactive)

**Q.** And the GI50 (HCC 2998)?
**A.** > 100 µM (inactive)

**Q.** What about the GI50 (SNB-19) of the same compound?
**A.** > 100 µM (inactive)

**Q.** What about the GI50 (SR) of the same compound?
**A.** > 100 µM (inactive)

**Q.** What about the GI50 (HT-29) of the same compound?
**A.** > 100 µM (inactive)

**Q.** What about the GI50 (KM12) of the same compound?
**A.** > 100 µM (inactive)

**Q.** And the GI50 (HCT-116)?
**A.** > 100 µM (inactive)

**Q.** And the GI50 (TK-10)?
**A.** > 100 µM (inactive)

**Q.** What about the GI50 (RPMI-8226) of the same compound?
**A.** > 100 µM (inactive)

**Q.** And the GI50 (SN12C)?
**A.** > 100 µM (inactive)

**Q.** What about the GI50 (OVCAR-4) of the same compound?
**A.** > 100 µM (inactive)

**Q.** What about the GI50 (LXFL 529) of the same compound?
**A.** > 100 µM (inactive)

**Q.** And the GI50 (786-0)?
**A.** > 100 µM (inactive)

**Q.** And the GI50 (SF-539)?
**A.** > 100 µM (inactive)

**Q.** What about the GI50 (EKVX) of the same compound?
**A.** > 100 µM (inactive)

**Q.** For `COc1ccc2c(c1)CCCC1C3=NCCC3(C)CSC21` (centres undefined), which GI50 (NCI-H23) is on record?
**A.** 47.3 µM (inactive)

**Q.** What about the GI50 (U-251) of the same compound?
**A.** 74.5 µM (inactive)

**Q.** What about the GI50 (HOP-18) of the same compound?
**A.** 80.4 µM (inactive)

**Q.** And the GI50 (M19-MEL)?
**A.** 72.1 µM (inactive)

**Q.** And the GI50 (NCI-H460)?
**A.** 74 µM (inactive)

**Q.** What about the GI50 (SNB-75) of the same compound?
**A.** 67.8 µM (inactive)

**Q.** And the GI50 (SK-MEL-5)?
**A.** 42.8 µM (inactive)

**Q.** What about the GI50 (RXF 393) of the same compound?
**A.** 95.5 µM (inactive)

**Q.** What about the GI50 (OVCAR-8) of the same compound?
**A.** 59.7 µM (inactive)

**Q.** What about the GI50 (KM-20L2) of the same compound?
**A.** 22.8 µM (inactive)

**Q.** What about the GI50 (COLO 205) of the same compound?
**A.** 52.6 µM (inactive)

**Q.** What about the GI50 (M14) of the same compound?
**A.** 37.4 µM (inactive)

**Q.** And the GI50 (OVCAR-3)?
**A.** 97.3 µM (inactive)

**Q.** What about the GI50 (NCI-H522) of the same compound?
**A.** 86.9 µM (inactive)

**Q.** And the GI50 (XF498)?
**A.** > 100 µM (inactive)

**Q.** What about the GI50 (SF-295) of the same compound?
**A.** 86.9 µM (inactive)

**Q.** And the GI50 (SK-OV-3)?
**A.** > 100 µM (inactive)

**Q.** And the GI50 (SK-MEL-28)?
**A.** 36.2 µM (inactive)

**Q.** What about the GI50 (DMS-273) of the same compound?
**A.** 36.6 µM (inactive)

**Q.** And the GI50 (LOX IMVI)?
**A.** 30.2 µM (inactive)

**Q.** What about the GI50 (DMS-114) of the same compound?
**A.** 37.8 µM (inactive)

**Q.** And the GI50 (MOLT-4)?
**A.** 32.6 µM (inactive)

**Q.** What about the GI50 (A549) of the same compound?
**A.** > 100 µM (inactive)

**Q.** And the GI50 (K562)?
**A.** 31 µM (inactive)

**Q.** What about the GI50 (CCRF-CEM) of the same compound?
**A.** 70.3 µM (inactive)

**Q.** And the GI50 (IGROV-1)?
**A.** > 100 µM (inactive)

**Q.** And the GI50 (SNB-78)?
**A.** > 100 µM (inactive)

**Q.** What about the GI50 (HL-60) of the same compound?
**A.** 17.1 µM (inactive)

**Q.** What about the GI50 (UACC-62) of the same compound?
**A.** 55 µM (inactive)

**Q.** What about the GI50 (SW-620) of the same compound?
**A.** > 100 µM (inactive)

**Q.** What about the GI50 (SF-268) of the same compound?
**A.** > 100 µM (inactive)

**Q.** And the GI50 (SNB-19)?
**A.** > 100 µM (inactive)

**Q.** And the GI50 (HT-29)?
**A.** 32.4 µM (inactive)

**Q.** What about the GI50 (KM12) of the same compound?
**A.** > 100 µM (inactive)

**Q.** And the GI50 (HCT-116)?
**A.** 37.5 µM (inactive)

**Q.** And the GI50 (TK-10)?
**A.** 70.8 µM (inactive)

**Q.** What about the GI50 (RPMI-8226) of the same compound?
**A.** 55.8 µM (inactive)

**Q.** And the GI50 (SN12C)?
**A.** > 100 µM (inactive)

**Q.** What about the GI50 (OVCAR-4) of the same compound?
**A.** > 100 µM (inactive)

**Q.** And the GI50 (LXFL 529)?
**A.** 58.5 µM (inactive)

**Q.** What about the GI50 (786-0) of the same compound?
**A.** 70.3 µM (inactive)

**Q.** And the GI50 (SF-539)?
**A.** 51.6 µM (inactive)
